Test results from US20030134335A1, “Method for reducing the immunogenicity of heterologous proteins by elimination of t-cell epitopes” (priority 1999, published 2003).

What was measured:
[1] = system: SakSTAR specific T-cell clones (CD3+, CD4+); assay: Functional T-cell assay: proliferation (BrdU) of SakSTAR-specific T-cell clones with APC and antigen/peptide; type: cell-based, human; settings: for immunogenic / functional T-cell epitope by T-cell clone specificity: over 100 SakSTAR specific T-cell clones, SakSTAR-derived peptides; for proliferation of region(71-87)-specific T-cell clones: positive if at least three times the background
Text: For the cloning of SakSTAR-specific T-cell clones, approximately 15×10^6 PBMC from each donor were stimulated with an optimal concentration of SakSTAR for 7-9 days. The visible T-cell clones were harvested under the microscope, and individually re-stimulated in a 96-well flat-bottom plate with autologous PBMC as antigen presenting cells (APC). These wells were supplemented on day 1 with 20U/ml recombinant human interleukin-2 (IL-2) (Boehringer Mannheim, Mannheim, Germany) and allowed to grow for 8-11 days. Re-stimulation was repeated every 8-11 days under the same conditions. After 3 to 6 passages, autologous PBMC were replaced by autologous Epstein Barr Virus (EBV)-immortalized B-cell lines as antigen presenting cells.
To identify immunogenic regions on the SakSTAR molecule, the isolated T-cell clones were tested for their specificity using SakSTAR-derived peptides. In total 25 peptides 17 residues in length, each overlapping 12 residues were synthesized using a fluorenylmethoxy-carbonyl-protected amino acid coupling procedure (Hiemstra et al., 1997). Each individual T-cell clone was tested for its specificity by co-culturing T-cells, Mitomycin C-treated autologous EBV-B-cells and antigen or the appropriate peptide for 4 days. Subsequently, the T-cell clones were pulsed for 24 hours with BrdU, harvested and analyzed for their BrdU content.

[2] = system: PBMC; assay: Proliferation (stimulation index) of SakSTAR-myc-primed PBMC re-stimulated with antigen/peptides; type: cell-based, human; settings: for cellular immune response (stimulation index) of SakSTAR-myc primed PBMC: PBMC from 10 region(71-87)-immunoreactive donors, value exceeding 3 positive
Text: However, the vast majority of humans does also recognize additional immunogenic SakSTAR regions (untouched in these SakSTAR-variants), which would invalidate such an experiment. Therefore, 25 other healthy donors were screened for SakSTAR immunoreactivity. PBMC were thawed, washed four times in 1% human serum albumin, and cultured at 1.8×10^6 cells/ml in RPMI 1640 supplemented with 5%. human serum (Biowitthaker, Walkersville, Md.) and gentamycin with or without SakSTAR-myc for 10 days in a humidified CO2 incubator. The non-adherent cells were harvested and restimulated with no antigen, SakSTAR-myc or different peptides. For antigen presenting cells, irradiated autologous PBMC were T-cell depleted, using CD3-M450 Dynabeads (Dynal, Compiégne, France) according manufacturer procedures (FACS analysis indicated >95% non-T-cells). The plates were incubated at 37° C. under humidified atmosphere containing 5% CO2 for 5 days, and pulsed with BrdU for the last 22 to 24 hours.
Subsequently, the cells were harvested and analyzed for their BrdU content (BrdU ELISA, Boehringer Mannheim, Mannheim, Germany). A stimulation index was calculated, by dividing the OD obtained from the PBMC in response to an antigen/peptide by that of the spontaneous proliferation (no antigen) control. A value exceeding 3 was considered positive, indicating the proliferation of specific T-cells to that particular antigen/peptide.

Sequence	immunogenic / functional T-cell epitope by T-cell clone specificity [1]	cellular immune response (stimulation index) of SakSTAR-myc primed PBMC [2]	further results
AYKEFRVVELD [S1, 11-mer peptide, SakSTAR residues 72-82]	functional T-cell epitopes	–	proliferation of region(71-87)-specific T-cell clones [1]: clones Tc-1 to Tc-6 proliferated
EFRVVELDPSA [S2, 11-mer peptide, SakSTAR residues 75-85]	functional T-cell epitopes	–	proliferation of region(71-87)-specific T-cell clones [1]: Tc-7 to Tc-10 recognize the S2 peptide
HYVEFPIKPGT [43-HYVEFPIKPGT-53]	no T-cell clones were isolated	–	–
TAYAAFAVVALAPSAKI [quintuple (K74A, E75A, R77A, E80A, D82A), multiple mutation(71-87) peptide]	–	none of the tested donors showed a positive cellular immune response	–
TAYKEFAVVALAPSAKI [triple (R77A, E80A, D82A), multiple mutation(71-87) peptide]	–	none of the tested donors showed a positive cellular immune response	–
TAYKEFAVVALDPSAKI [double (R77A, E80A), multiple mutation(71-87) peptide]	–	none of the tested donors showed a positive cellular immune response	–
TAYKEFRVVELDPSAKI [71-TAYKEFRVVELDPSAKI-87, wild type SakSTAR(71-87) 17-mer peptide]	–	–	donors from which isolated T-cell clones were stimulated by the peptide ([1]; T-cell clones from 10 healthy donors): 9 of 10; SakSTAR positive donors with a cellular immune response to the peptide ([2]; 20 identified SakSTAR positive donors, stimulation index exceeding 3 positive): 80%
TAYQEFSVVSLSPSAKI [quadruple (K74Q, R77S, E80S, D82S), multiple mutation(71-87) peptide]	–	none of the tested donors showed a positive cellular immune response	–
TYYDKNKKKEE [90-TYYDKNKKKEE-100]	no T-cell clones were isolated	–	–
